Assay results from patent US20230226040A1, “COMBINATION THERAPY COMPRISING AN FGFR INHIBITOR AND A KRAS INHIBITOR” (Incyte Corporation, priority 2021, published 2023).

Tests used:
Type in all cases: cell-based
pFRS2a = test: Western blot of pFRS2a in LU99 cell lysate (90 hours treatment); settings: LU99 cells
Description: FGFR1 and downstream activation marker pFRS2a protein levels were examined in indicated cell lines, as well as markers for epithelial-like cells (E-cadherin) and mesenchymal-like cells (Vimentin).

H358 = test: 5-day Cell Titer Glo combination matrix, Bliss score; settings: H358 (Lung, Epithelial), 5 days
Description: (§1) Cells were seeded in RPMI medium with 10% HI FBS at a density of 500 cells/well in Greiner, white, clear bottom, 384-well tissue culture treated plates containing 10×10 combination matrices of compound. Plates were incubated at 37° C., 5% CO2 for 5 days. On day 5, Cell Titer Glo reagent was added to the plates and ATP luminescence was detected using a Pherastar FSX reader. The synergy score for the combination effect was calculated using a Bliss score model where the Bliss score=Yab-(Ya+Yb−(YaYb))×100, where Ya and Yb are the monotherapies. Bliss scores >20 are strongly synergistic and a higher Bliss scores indicates a higher level of synergism.
(§2) Cells were seeded in RPMI medium with 10% HI FBS at a density of 500 cells/well in Greiner, white, clear bottom, 384-well tissue culture treated plates containing 10×10 combination matrices of compound. Plates were incubated at 37° C., 5% CO2 for 5 days. On day 5, Cell Titer Glo reagent was added to the plates and ATP luminescence was detected using a Pherastar FSX reader. Synergy score for the combination effect is calculated using a Bliss score model where the Bliss score=Yab−(Ya+Yb−(YaYb))×100, where Ya and Yb are the monotherapies. Bliss scores >20 are strongly synergistic and a higher Bliss scores indicates a higher level of synergism.
(§3) Cells were seeded in RPMI medium with 10% HI FBS at a density of 500 cells/well in Greiner, white, clear bottom, 384-well tissue culture treated plates containing 10×10 combination matrices of compound. Plates were incubated at 37° C., 5% CO2 for 5 days. On day 5, Cell Titer Glo reagent was added to the plates and ATP luminescence was detected using a Pherastar FSX reader. The synergy score for the combination effect was calculated using a Bliss score model where the Bliss score=Yab−(Ya+Yb−(YaYb))×100, where Ya and Yb are the monotherapies. Bliss scores >20 are strongly synergistic and a higher Bliss scores indicates a higher level of synergism.

SW-837 = test: as above; settings: SW837 (CRC, Epithelial); FGFR inhibitor in combination with MRTX849; 5 days
Description: as §1, §3

HCC-44 = test: as above; settings: HCC44 (Lung, Mesenchymal); FGFR inhibitor in combination with MRTX849; 5 days
Description: as §1, §3

LU-99 = test: as above; settings: 5 days
Description: as §2, §3

H2122 = test: as above; settings: H2122 (Lung, Epithelial); FGFR inhibitor in combination with MRTX849; 5 days
Description: as §3

[1] = tested on: MiaPaca2 KRAS G12C resistant clone 11; test: 5-day Cell Titer Glo viability and Bliss score
Description: For G12C resistant clone generation, MiaPaca2 parent cells were cultured with increasing concentrations of AMG510 (up to 1μM) over time. The viable cells were re-fed fresh media containing AMG510 weekly. Once the AMG510 resistant cells were growing at normal rates in the presence of 1μM AMG510, they were cloned by limiting dilution. Eight clones were selected for continued passage and further experiments.

[2] = CLONE 11, G12C i 111 nM + Pemi 1 μM, 5-day CTG

CCN1C(=O)N(c2c(F)c(OC)cc(OC)c2F)Cc2cnc3[nH]c(CN4CCOCC4)cc3c21 [Pemigatinib, 3-(2,6-difluoro-3,5-dimethoxyphenyl)-1-ethyl-8-(morpholin-4-ylmethyl)-1,3,4,7-tetrahydro-2H-pyrrolo[3′,2′:5,6]pyrido[4,3-d]pyrimidin-2-one]
pFRS2a level, FGFR inhibitor in combination with KRAS inhibitor MRTX849 (pFRS2a; 50 nM MRTX849, pemigatinib 0.5 μM): inhibited the pFRS2a level | pFRS2a level, FGFR inhibitor in combination with KRAS inhibitors (pFRS2a; with 50 nM AMG510 or Compound 2): inhibited the pFRS2a level | Avg. Bliss Score (H358; FGFR inhibitor in combination with Cmpd 3): 1.4 | Avg. Bliss Score (H358; FGFR inhibitor in combination with MRTX849): 3.7 | Avg. Bliss Score (SW-837): 6.1 | Avg. Bliss Score (HCC-44): 11.6 | Avg. Bliss Score (LU-99; LU-99 (Lung, Mesenchymal), FGFR inhibitor in combination with Cmpd 3): 44.8 | Avg. Bliss Score (LU-99; Lu99 (Lung, Mesenchymal), FGFR inhibitor in combination with MRTX849): 37.4 | Avg. Bliss Score (H2122): 4.5 | % viability, Together [1, 2]: 33.8% | BLISS Score [1, 2]: 24.9 | % viability, Pemi 1 μM ([1]; CLONE 11, Pemi alone, 5-day CTG): 87.6% | BLISS Score ([1]; MIA-R clone 11, Pemi 12 nM + KRAS G12C i 0.15 nM, 5 day CTG): 2.35 | BLISS Score ([1]; MIA-R clone 11, Pemi 12 nM + KRAS G12C i 0.46 nM, 5 day CTG): 11.42 | BLISS Score ([1]; MIA-R clone 11, Pemi 12 nM + KRAS G12C i 1.37 nM, 5 day CTG): 6.90 | BLISS Score ([1]; MIA-R clone 11, Pemi 12 nM + KRAS G12C i 4.12 nM, 5 day CTG): 11.81 | BLISS Score ([1]; MIA-R clone 11, Pemi 12 nM + KRAS G12C i 12.35 nM, 5 day CTG): 1.32 | BLISS Score ([1]; MIA-R clone 11, Pemi 12 nM + KRAS G12C i 37.04 nM, 5 day CTG): 5.62 | BLISS Score ([1]; MIA-R clone 11, Pemi 12 nM + KRAS G12C i 111.11 nM, 5 day CTG): 11.57 | BLISS Score ([1]; MIA-R clone 11, Pemi 12 nM + KRAS G12C i 333.33 nM, 5 day CTG): −7.24 | BLISS Score ([1]; MIA-R clone 11, Pemi 12 nM + KRAS G12C i 1000.00 nM, 5 day CTG): 1.05 | BLISS Score ([1]; MIA-R clone 11, Pemi 37 nM + KRAS G12C i 0.15 nM, 5 day CTG): 14.47 | BLISS Score ([1]; MIA-R clone 11, Pemi 37 nM + KRAS G12C i 0.46 nM, 5 day CTG): 6.20 | BLISS Score ([1]; MIA-R clone 11, Pemi 37 nM + KRAS G12C i 1.37 nM, 5 day CTG): 6.05 | BLISS Score ([1]; MIA-R clone 11, Pemi 37 nM + KRAS G12C i 4.12 nM, 5 day CTG): 20.01 | BLISS Score ([1]; MIA-R clone 11, Pemi 37 nM + KRAS G12C i 12.35 nM, 5 day CTG): 15.07 | BLISS Score ([1]; MIA-R clone 11, Pemi 37 nM + KRAS G12C i 37.04 nM, 5 day CTG): 10.60 | BLISS Score ([1]; MIA-R clone 11, Pemi 37 nM + KRAS G12C i 111.11 nM, 5 day CTG): 8.39 | BLISS Score ([1]; MIA-R clone 11, Pemi 37 nM + KRAS G12C i 333.33 nM, 5 day CTG): −5.78 | BLISS Score ([1]; MIA-R clone 11, Pemi 37 nM + KRAS G12C i 1000.00 nM, 5 day CTG): 4.52 | BLISS Score ([1]; MIA-R clone 11, Pemi 111 nM + KRAS G12C i 0.15 nM, 5 day CTG): −3.03 | BLISS Score ([1]; MIA-R clone 11, Pemi 111 nM + KRAS G12C i 0.46 nM, 5 day CTG): 6.04 | BLISS Score ([1]; MIA-R clone 11, Pemi 111 nM + KRAS G12C i 1.37 nM, 5 day CTG): 8.76 | BLISS Score ([1]; MIA-R clone 11, Pemi 111 nM + KRAS G12C i 4.12 nM, 5 day CTG): 13.15 | BLISS Score ([1]; MIA-R clone 11, Pemi 111 nM + KRAS G12C i 12.35 nM, 5 day CTG): 15.70 | BLISS Score ([1]; MIA-R clone 11, Pemi 111 nM + KRAS G12C i 37.04 nM, 5 day CTG): 13.58 | BLISS Score ([1]; MIA-R clone 11, Pemi 111 nM + KRAS G12C i 111.11 nM, 5 day CTG): 9.80 | BLISS Score ([1]; MIA-R clone 11, Pemi 111 nM + KRAS G12C i 333.33 nM, 5 day CTG): 6.86 | BLISS Score ([1]; MIA-R clone 11, Pemi 111 nM + KRAS G12C i 1000.00 nM, 5 day CTG): 3.15 | BLISS Score ([1]; MIA-R clone 11, Pemi 333 nM + KRAS G12C i 0.15 nM, 5 day CTG): 6.68 | BLISS Score ([1]; MIA-R clone 11, Pemi 333 nM + KRAS G12C i 0.46 nM, 5 day CTG): 20.56 | BLISS Score ([1]; MIA-R clone 11, Pemi 333 nM + KRAS G12C i 1.37 nM, 5 day CTG): 17.83 | BLISS Score ([1]; MIA-R clone 11, Pemi 333 nM + KRAS G12C i 4.12 nM, 5 day CTG): 34.95 | BLISS Score ([1]; MIA-R clone 11, Pemi 333 nM + KRAS G12C i 12.35 nM, 5 day CTG): 20.46 | BLISS Score ([1]; MIA-R clone 11, Pemi 333 nM + KRAS G12C i 37.04 nM, 5 day CTG): 24.19 | BLISS Score ([1]; MIA-R clone 11, Pemi 333 nM + KRAS G12C i 111.11 nM, 5 day CTG): 25.28 | BLISS Score ([1]; MIA-R clone 11, Pemi 333 nM + KRAS G12C i 333.33 nM, 5 day CTG): 14.69 | BLISS Score ([1]; MIA-R clone 11, Pemi 333 nM + KRAS G12C i 1000.00 nM, 5 day CTG): 13.90 | BLISS Score ([1]; MIA-R clone 11, Pemi 1000 nM + KRAS G12C i 0.15 nM, 5 day CTG): −0.21 | BLISS Score ([1]; MIA-R clone 11, Pemi 1000 nM + KRAS G12C i 0.46 nM, 5 day CTG): 11.01 | BLISS Score ([1]; MIA-R clone 11, Pemi 1000 nM + KRAS G12C i 1.37 nM, 5 day CTG): 23.94 | BLISS Score ([1]; MIA-R clone 11, Pemi 1000 nM + KRAS G12C i 4.12 nM, 5 day CTG): 31.01 | BLISS Score ([1]; MIA-R clone 11, Pemi 1000 nM + KRAS G12C i 12.35 nM, 5 day CTG): 29.47 | BLISS Score ([1]; MIA-R clone 11, Pemi 1000 nM + KRAS G12C i 37.04 nM, 5 day CTG): 21.52 | BLISS Score ([1]; MIA-R clone 11, Pemi 1000 nM + KRAS G12C i 111.11 nM, 5 day CTG): 24.91 | BLISS Score ([1]; MIA-R clone 11, Pemi 1000 nM + KRAS G12C i 333.33 nM, 5 day CTG): 20.06 | BLISS Score ([1]; MIA-R clone 11, Pemi 1000 nM + KRAS G12C i 1000.00 nM, 5 day CTG): 21.43
